We go through seven compounds from ChEMBL document CHEMBL3813599, “Identification of small-molecule compounds targeting the dishevelled PDZ domain by virtual screening and binding studies” (Bioorg Med Chem, 2016).

What is called Kd is the free concentration of one partner at which half of the binding sites on the other are occupied at equilibrium, for simple one-to-one binding.

Calls of active or inactive are those of the source. The calls are words filed in the database; no cut-off is given here.

Experiment [1] has as its target T1, Segment polarity protein dishevelled homolog DVL-1 (Homo sapiens) (UniProt O14640).
T1 sequence (whole entry): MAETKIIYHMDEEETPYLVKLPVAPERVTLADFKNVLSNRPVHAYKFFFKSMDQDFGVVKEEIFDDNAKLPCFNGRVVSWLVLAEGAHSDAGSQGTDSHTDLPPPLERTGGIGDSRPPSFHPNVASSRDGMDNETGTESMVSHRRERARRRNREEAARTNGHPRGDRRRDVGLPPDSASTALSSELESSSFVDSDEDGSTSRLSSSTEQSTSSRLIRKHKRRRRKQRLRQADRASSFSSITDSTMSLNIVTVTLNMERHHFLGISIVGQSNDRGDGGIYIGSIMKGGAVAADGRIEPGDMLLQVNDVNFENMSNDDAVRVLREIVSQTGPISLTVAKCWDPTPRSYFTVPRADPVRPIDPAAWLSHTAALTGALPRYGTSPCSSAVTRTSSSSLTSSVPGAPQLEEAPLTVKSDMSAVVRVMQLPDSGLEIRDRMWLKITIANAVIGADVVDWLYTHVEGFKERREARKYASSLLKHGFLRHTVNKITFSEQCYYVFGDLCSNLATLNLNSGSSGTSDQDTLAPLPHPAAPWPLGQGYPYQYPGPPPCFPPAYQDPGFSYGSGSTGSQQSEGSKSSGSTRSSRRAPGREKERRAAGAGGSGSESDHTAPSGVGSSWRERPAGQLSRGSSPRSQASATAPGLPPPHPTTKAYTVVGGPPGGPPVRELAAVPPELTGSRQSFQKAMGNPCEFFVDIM
Description: Binding affinity to His-tagged Dvl-1 PDZ domain (247 to 337 residues) (unknown origin) expressed in Escherichia coli BL21 (DE3) assessed as association rate by SPR analysis

Experiment [2] deals with T2, Segment polarity protein dishevelled homolog DVL-1 (Homo sapiens, UniProt O14640).
T2 sequence (O14640 whole entry): T1 sequence (whole entry)
Briefly: Binding affinity to His-tagged Dvl-1 PDZ domain (247 to 337 residues) (unknown origin) expressed in Escherichia coli BL21 (DE3) by SPR analysis. For orientation: SPR reads the build-up and loss of mass on a sensor chip optically.

The target of experiment [3] is T2, Segment polarity protein dishevelled homolog DVL-1. The experiment can be described thus: Binding affinity to His-tagged Dvl-1 PDZ domain (247 to 337 residues) (unknown origin) expressed in Escherichia coli BL21 (DE3) assessed as dissociation rate by SPR analysis.
The target of experiment [4] is T3, Segment polarity protein dishevelled homolog DVL-1 (Mus musculus, UniProt P51141).
T3 sequence (P51141 whole entry): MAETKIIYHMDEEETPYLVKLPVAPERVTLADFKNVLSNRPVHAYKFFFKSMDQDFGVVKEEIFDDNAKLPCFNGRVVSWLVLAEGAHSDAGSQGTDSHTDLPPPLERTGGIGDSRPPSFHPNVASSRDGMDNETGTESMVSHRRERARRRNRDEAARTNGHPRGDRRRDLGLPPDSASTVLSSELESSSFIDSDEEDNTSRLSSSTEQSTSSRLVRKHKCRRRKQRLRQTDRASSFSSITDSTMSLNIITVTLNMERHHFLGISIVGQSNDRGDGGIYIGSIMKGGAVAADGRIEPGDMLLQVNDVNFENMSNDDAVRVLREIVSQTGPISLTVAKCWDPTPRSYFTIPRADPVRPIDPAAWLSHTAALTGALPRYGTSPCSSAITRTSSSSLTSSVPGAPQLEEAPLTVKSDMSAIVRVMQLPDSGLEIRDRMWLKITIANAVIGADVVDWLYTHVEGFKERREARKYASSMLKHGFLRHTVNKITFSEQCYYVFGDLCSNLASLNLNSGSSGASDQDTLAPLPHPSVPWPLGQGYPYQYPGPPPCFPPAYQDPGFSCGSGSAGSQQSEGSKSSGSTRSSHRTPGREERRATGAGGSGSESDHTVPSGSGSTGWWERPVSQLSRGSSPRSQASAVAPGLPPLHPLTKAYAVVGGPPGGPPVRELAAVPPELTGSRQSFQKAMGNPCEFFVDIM
The experiment can be described thus: Binding affinity to TMR-linked 15N-labeled mouse Dvl-1 domain ( 247 to 341 residues) by fluorescence spectroscopy.

Experiment [5] has as its target T1, Segment polarity protein dishevelled homolog DVL-1 (Homo sapiens). The experiment can be described thus: Binding affinity to His-tagged Dvl-1 PDZ domain (247 to 337 residues) (unknown origin) expressed in Escherichia coli BL21 (DE3) assessed as chemical shift perturbations at 1:0 to 1:20 protein-compound ratio by 1H-15N-HSQC NMR analysis.

Consider `COC(=O)CN1C(=O)S/C(=C/c2ccc(-c3cccc(C(=O)O)c3C)o2)C1=O`, for which the Ka in experiment [1] was 4.68 ×10⁶ /M/s. This compound also gave a Kd in experiment [2] of 251 µM.

`O=C(O)Cc1coc2cc(OS(=O)(=O)c3ccc(Cl)cc3F)ccc12`: in experiment [1], the Ka was found to be 1.04 ×10⁴ /M/s. Besides, the Kd in experiment [2] is 139 µM. Moreover, in experiment [3], the “Dissociation rate constant (koff)” value turned out to be 1.45 s⁻¹.

`CCCN1C(=O)/C(=C/c2ccc(OCC(=O)O)c(Cl)c2)NC1=S` showed a Ka in experiment [1] of 2.5 ×10³ /M/s. In experiment [2], the affinity, expressed as Kd, was 152 µM. Also, the “Dissociation rate constant (koff)” value in experiment [3] came out at 3.81 ×10⁻¹ /s.

Compound `O=C(O)C1CCN(C(=O)c2cc(-c3ccc(Cl)s3)nc3ccccc23)CC1` gave a Ka in experiment [1] of 5.47 ×10⁴ /M/s. Also, in experiment [2], binding was put at a Kd of 311 µM. Also, in experiment [3], the “Dissociation rate constant (koff)” value came out at 1.7 ×10¹ /s.

The compound `COC(=O)COc1ccc(/C=C2\Sc3ccccc3C2=O)cc1` showed a Ka in experiment [1] of 3.2 ×10³ /M/s. The same compound yielded a Kd in experiment [2] of 783 µM. In experiment [3], the “Dissociation rate constant (koff)” value stood at 2.51 s⁻¹.

`CC(C)[C@H](OC(=O)[C@H](C)NC(=O)[C@@H](OC(=O)[C@H](C)NC(=O)OC(C)(C)C)C(C)C)C(=O)O` gave a Kd in experiment [4] of 237 µM.

For the compound `COc1cc(/C=C2\Sc3ccccc3C2=O)ccc1OCC(=O)O`, the result in experiment [5] was Active. The compound also returned a Ka in experiment [1] of 2.32 ×10³ /M/s. In experiment [2], this compound showed a Kd of 268 µM. Further, the “Dissociation rate constant (koff)” value in experiment [3] is given as 6.22 ×10⁻¹ /s.
